According to ChEMBL document CHEMBL4229556, “Discovery and development of substituted tyrosine derivatives as Bcl-2/Mcl-1 inhibitors” (Bioorg Med Chem, 2018):
One block for each compound: values may come before it.

Experiments:
[1] = target: Apoptosis regulator Bcl-2 (Homo sapiens, UniProt P10415); experiment: Inhibition of Bid-BH3 peptide binding to Bcl-2 (unknown origin) after 3 hrs by fluorescence polarization method
MOLT-4 = experiment: Antiproliferative activity against human MOLT4 cells after 72 hrs by MTT assay; format: functional, cell-based; details: MOLT-4, 72 h
Bcl-2-like protein 1 = Bcl-2-like protein 1 (Homo sapiens, UniProt Q07817); experiment: Inhibition of Bid-BH3 peptide binding to Bcl-xL (unknown origin) after 3 hrs by fluorescence polarization method
Sequence of Bcl-2-like protein 1 (Q07817 whole entry): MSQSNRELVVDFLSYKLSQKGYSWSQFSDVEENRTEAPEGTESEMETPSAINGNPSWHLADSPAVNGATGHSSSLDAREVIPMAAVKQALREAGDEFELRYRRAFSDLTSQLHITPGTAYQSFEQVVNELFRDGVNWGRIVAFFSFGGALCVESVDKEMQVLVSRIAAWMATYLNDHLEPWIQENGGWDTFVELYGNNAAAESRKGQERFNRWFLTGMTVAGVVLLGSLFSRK

Jurkat [2] = experiment: Antiproliferative activity against human Jurkat cells after 72 hrs by MTT assay; format: functional, cell-based
RS4-11 = experiment: Antiproliferative activity against human RS4:11 cells after 72 hrs by MTT assay; format: functional, cell-based; details: RS4-11, 72 h
THP-1 = experiment: Antiproliferative activity against human THP1 cells after 72 hrs by MTT assay; format: functional, cell-based; details: THP-1, 72 h
HUVEC = experiment: Cytotoxicity against HUVEC cells after 72 hrs by MTT assay; format: cell-based; details: Homo sapiens
[3] = target: Induced myeloid leukemia cell differentiation protein Mcl-1 (Homo sapiens, UniProt Q07820); experiment: Inhibition of Bid-BH3 peptide binding to Mcl-1 (unknown origin) after 3 hrs by fluorescence polarization method
Sequence of Induced myeloid leukemia cell differentiation protein Mcl-1 (Q07820 whole entry): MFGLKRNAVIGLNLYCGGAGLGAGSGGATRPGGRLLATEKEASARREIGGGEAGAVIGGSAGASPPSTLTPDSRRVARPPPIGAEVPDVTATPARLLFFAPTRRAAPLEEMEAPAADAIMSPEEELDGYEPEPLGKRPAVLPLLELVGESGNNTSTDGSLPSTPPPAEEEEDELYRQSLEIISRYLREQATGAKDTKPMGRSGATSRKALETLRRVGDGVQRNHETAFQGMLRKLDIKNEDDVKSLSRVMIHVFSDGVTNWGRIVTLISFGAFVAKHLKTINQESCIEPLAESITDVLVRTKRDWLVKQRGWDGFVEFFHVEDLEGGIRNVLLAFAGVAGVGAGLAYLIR

Jurkat [4] = experiment: Induction of apoptosis in human Jurkat cells assessed as late apoptotic cells at 10 uM after 48 hrs by annexin V-FITC/PI staining based flow cytometry (reference value: 0.31%); format: functional
Jurkat [5] = experiment: Induction of apoptosis in human Jurkat cells assessed as necrotic cells at 10 uM after 48 hrs by annexin V-FITC/PI staining based flow cytometry (reference value: 0.008%); format: functional
Jurkat [6] = experiment: Induction of apoptosis in human Jurkat cells assessed as early apoptotic cells at 20 uM after 48 hrs by annexin V-FITC/PI staining based flow cytometry (reference value: 2.26%); format: functional
Jurkat [7] = experiment: Induction of apoptosis in human Jurkat cells after 48 hrs by annexin V-FITC/PI staining based flow cytometry; format: functional, cell-based
Jurkat [8] = experiment: Induction of apoptosis in human Jurkat cells assessed as necrotic cells at 20 uM after 48 hrs by annexin V-FITC/PI staining based flow cytometry (reference value: 0.008%); format: functional
Jurkat [9] = experiment: Induction of apoptosis in human Jurkat cells assessed as viable cells at 20 uM after 48 hrs by annexin V-FITC/PI staining based flow cytometry (reference value: 97.4%); format: functional; details: read-out: Activity
Jurkat [10] = experiment: Induction of apoptosis in human Jurkat cells assessed as late apoptotic cells at 20 uM after 48 hrs by annexin V-FITC/PI staining based flow cytometry (reference value: 0.31%); format: functional
Jurkat [11] = experiment: Induction of apoptosis in human Jurkat cells assessed as early apoptotic cells at 10 uM after 48 hrs by annexin V-FITC/PI staining based flow cytometry (reference value: 2.26%); format: functional
Jurkat [12] = experiment: Induction of apoptosis in human Jurkat cells assessed as increase in activation of caspase-3 after 48 hrs by fluorometric method; format: functional, cell-based
Jurkat [13] = experiment: Induction of apoptosis in human Jurkat cells assessed as viable cells at 10 uM after 48 hrs by annexin V-FITC/PI staining based flow cytometry (reference value: 97.4%); format: functional; details: read-out: Activity

Sequence of Apoptosis regulator Bcl-2 (P10415 whole entry): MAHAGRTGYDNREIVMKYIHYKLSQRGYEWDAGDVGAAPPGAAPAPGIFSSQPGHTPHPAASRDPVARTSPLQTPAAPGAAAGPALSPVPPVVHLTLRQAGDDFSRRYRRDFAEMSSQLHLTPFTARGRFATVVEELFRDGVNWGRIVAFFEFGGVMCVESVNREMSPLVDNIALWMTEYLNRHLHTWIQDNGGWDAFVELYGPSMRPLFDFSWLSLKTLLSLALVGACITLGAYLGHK

Structure (SMILES): CC(C)(C)OC(=O)N[C@@H](Cc1ccc(OCc2ccccc2)cc1)C(=O)NS(=O)(=O)c1ccc(NCCCc2ccccc2)c([N+](=O)[O-])c1
- Ki ([1]; read-out: Ki): 1500 nM

Structure (SMILES): CC(C)(C)OC(=O)N[C@@H](Cc1ccc(OCc2ccccc2)cc1)C(=O)NS(=O)(=O)c1ccc(Cl)c([N+](=O)[O-])c1
- Ki [1]: Not Active

Structure (SMILES): N#Cc1ccc(COc2ccc(C[C@H](NC(=O)c3ccc4ccccc4c3)C(=O)NS(=O)(=O)c3ccc(NCCCc4ccccc4)c([N+](=O)[O-])c3)cc2)cc1
- Ki [1]: Not Active

Structure (SMILES): Cc1ccc(CC(=O)N[C@@H](Cc2ccc(OCc3ccccc3)cc2)C(=O)NS(=O)(=O)c2ccc(NCCCc3ccccc3)c([N+](=O)[O-])c2)cc1
- IC50 (MOLT-4): > 50000 nM
- Ki (Bcl-2-like protein 1): Not Active
- IC50 (Jurkat [2]): 23800 nM
- IC50 (RS4-11): 16800 nM
- Ki ([1]; read-out: Ki): 450 nM
- IC50 (THP-1): 23900 nM
- IC50 (HUVEC): > 50000 nM
- Ki [3]: 500 nM

Structure (SMILES): CC(C)(C)OC(=O)N[C@@H](Cc1ccc(OCc2ccc(-c3ccc(Cl)cc3)cc2)cc1)C(=O)NS(=O)(=O)c1ccc(Cl)c([N+](=O)[O-])c1
- Ki ([1]; read-out: Ki): 580 nM

Structure (SMILES): CC(C)(C)OC(=O)N[C@@H](Cc1ccc(OCc2ccc(-c3ccccc3)cc2)cc1)C(=O)NS(=O)(=O)c1ccc(Cl)c([N+](=O)[O-])c1
- IC50 (MOLT-4): 44400 nM
- Ki (Bcl-2-like protein 1): Not Active
- IC50 (Jurkat [2]): 23500 nM
- IC50 (RS4-11): 14000 nM
- Ki ([1]; read-out: Ki): 620 nM
- IC50 (THP-1): 27200 nM
- IC50 (HUVEC): > 50000 nM
- Ki [3]: 450 nM

Structure (SMILES): Cl.N[C@@H](Cc1ccc(OCc2ccc(-c3ccccc3)cc2)cc1)C(=O)NS(=O)(=O)c1ccc(Cl)c([N+](=O)[O-])c1
- Ki [1]: Not Active

Structure (SMILES): CC(C)(C)OC(=O)N[C@@H](Cc1ccc(OCc2ccc(Oc3ccccc3)cc2)cc1)C(=O)NS(=O)(=O)c1ccc(Cl)c([N+](=O)[O-])c1
- Ki ([1]; read-out: Ki): 700 nM

Structure (SMILES): Cl.N[C@@H](Cc1ccc(OCc2ccc(-c3ccccc3)cc2)cc1)C(=O)NS(=O)(=O)c1ccc(NCCCc2ccccc2)c([N+](=O)[O-])c1
- Ki [1]: Not Active

Structure (SMILES): Cc1ccc(CC(=O)N[C@@H](Cc2ccc(OCc3ccc(-c4ccccc4)cc3)cc2)C(=O)NS(=O)(=O)c2ccc(NCCCc3ccccc3)c([N+](=O)[O-])c2)cc1
- IC50 (MOLT-4): 8360 nM
- Activity (Jurkat [4]): 0.72%
- Activity (Jurkat [5]): 0.037%
- Ki (Bcl-2-like protein 1): Not Active
- IC50 (Jurkat [2]): 3370 nM
- IC50 (RS4-11): 3390 nM
- Activity (Jurkat [6]): 20.8%
- Activity (Jurkat [7]): Dose-dependent effect
- Activity (Jurkat [8]): 0%
- Ki ([1]; read-out: Ki): 450 nM
- IC50 (THP-1): 6460 nM
- IC50 (HUVEC): > 50000 nM
- viability at 20 µM (Jurkat [9]): 77.8%
- Ki [3]: 190 nM
- Activity (Jurkat [10]): 1.42%
- Activity (Jurkat [11]): 5.48%
- Activity (Jurkat [12]): Dose-dependent effect
- viability at 10 µM (Jurkat [13]): 93.8%

Structure (SMILES): Cc1ccc(-c2ccc(COc3ccc(C[C@H](NC(=O)OC(C)(C)C)C(=O)NS(=O)(=O)c4ccc(NCCOc5ccccc5)c([N+](=O)[O-])c4)cc3)cc2)cc1
- Ki ([1]; read-out: Ki): 850 nM

Structure (SMILES): Cl.N[C@@H](Cc1ccc(OCc2ccccc2)cc1)C(=O)NS(=O)(=O)c1ccc(NCCCc2ccccc2)c([N+](=O)[O-])c1
- Ki [1]: Not Active

Structure (SMILES): Cc1ccc(CC(=O)N[C@@H](Cc2ccc(OCc3ccc(-c4ccccc4)cc3)cc2)C(=O)NS(=O)(=O)c2ccc(Cl)c([N+](=O)[O-])c2)cc1
- Ki ([1]; read-out: Ki): 1100 nM

Structure (SMILES): CC(C)(C)OC(=O)N[C@@H](Cc1ccc(OCc2ccc(-c3ccccc3)cc2)cc1)C(=O)NS(=O)(=O)c1ccccc1
- Ki ([1]; read-out: Ki): 5200 nM

Structure (SMILES): N#Cc1ccc(COc2ccc(C[C@H](NC(=O)Cc3ccc(-c4ccccc4)cc3)C(=O)NS(=O)(=O)c3ccc(NC4CCCC4)c([N+](=O)[O-])c3)cc2)cc1
- Ki ([1]; read-out: Ki): 610 nM

Structure (SMILES): Cl.N#Cc1ccc(COc2ccc(C[C@H](N)C(=O)NS(=O)(=O)c3ccc(NC4CCCC4)c([N+](=O)[O-])c3)cc2)cc1
- Ki [1]: Not Active

The remaining lines, values ahead:

- Ki ([1]; read-out: Ki): 580 nM
Structure (SMILES): O=C(N[C@@H](Cc1ccc(OCc2ccc(-c3ccccc3)cc2)cc1)C(=O)NS(=O)(=O)c1ccc(Cl)c([N+](=O)[O-])c1)c1cccnc1

- Ki [1]: Not Active
Structure (SMILES): Cc1ccc(-c2ccc(COc3ccc(C[C@H](NC(=O)OC(C)(C)C)C(=O)NS(=O)(=O)c4ccc(NCC5CCCCC5)c([N+](=O)[O-])c4)cc3)cc2)cc1

- Ki ([1]; read-out: Ki): 570 nM
Structure (SMILES): O=C(N[C@@H](Cc1ccc(OCc2ccc(-c3ccccc3)cc2)cc1)C(=O)NS(=O)(=O)c1ccc(Cl)c([N+](=O)[O-])c1)c1ccc2ccccc2c1

- Ki [1]: Not Active
Structure (SMILES): O=C(N[C@@H](Cc1ccc(OCc2ccc(-c3ccccc3)cc2)cc1)C(=O)NS(=O)(=O)c1ccc(NC2CCCCC2)c([N+](=O)[O-])c1)c1ccc2ccccc2c1

- Ki [1]: Not Active
Structure (SMILES): Cl.N#Cc1ccc(COc2ccc(C[C@H](N)C(=O)NS(=O)(=O)c3ccc(NCCCc4ccccc4)c([N+](=O)[O-])c3)cc2)cc1

- Ki [1]: Not Active
Structure (SMILES): Cl.N[C@@H](Cc1ccc(OCc2ccc(-c3ccccc3)cc2)cc1)C(=O)NS(=O)(=O)c1ccc(NC2CCCCC2)c([N+](=O)[O-])c1

- Ki ([1]; read-out: Ki): 390 nM
Structure (SMILES): Cc1ccc(-c2ccc(COc3ccc(C[C@H](NC(=O)OC(C)(C)C)C(=O)NS(=O)(=O)c4ccc(Cl)c([N+](=O)[O-])c4)cc3)cc2)cc1

- Ki [1]: Not Active
Structure (SMILES): CC(C)(C)OC(=O)N[C@@H](Cc1ccc(OCc2ccc(Oc3ccccc3)cc2)cc1)C(=O)NS(=O)(=O)c1ccc(NC2CCCCC2)c([N+](=O)[O-])c1

- Ki [1]: Not Active
Structure (SMILES): CC(C)(C)OC(=O)N[C@@H](Cc1ccc(OCc2ccc(-c3ccccc3)cc2)cc1)C(=O)NS(=O)(=O)c1ccc(NCCCc2ccccc2)c([N+](=O)[O-])c1

- Ki ([1]; read-out: Ki): 800 nM
Structure (SMILES): CC(C)(C)OC(=O)N[C@@H](Cc1ccc(OCc2ccc(C#N)cc2)cc1)C(=O)NS(=O)(=O)c1ccc(NCCCc2ccccc2)c([N+](=O)[O-])c1

- Ki ([1]; read-out: Ki): 560 nM
Structure (SMILES): CCCCCC(=O)N[C@@H](Cc1ccc(OCc2ccc(-c3ccccc3)cc2)cc1)C(=O)NS(=O)(=O)c1ccc(Cl)c([N+](=O)[O-])c1

- Ki [1]: Not Active
Structure (SMILES): CC(C)(C)OC(=O)N[C@@H](Cc1ccc(OCc2ccc(-c3ccccc3)cc2)cc1)C(=O)NS(=O)(=O)c1ccc(NC2CCCCC2)c([N+](=O)[O-])c1

- Ki [1]: Not Active
Structure (SMILES): CC(C)(C)OC(=O)N[C@@H](Cc1ccc(OCc2ccc(C#N)cc2)cc1)C(=O)NS(=O)(=O)c1ccc(NC2CCCC2)c([N+](=O)[O-])c1
